For `O=C(O)c1ccc(-c2ccccc2)cc1`, the solubility (mole fraction) (in benzene, 293.15 K) was 0.00101, the solubility (mole fraction) (in benzene, 298.15 K) was 0.00123 and the solubility (mole fraction) (in benzene, 303.15 K) was 0.00149. For the same compound, the solubility (mole fraction) (in benzene, 308.15 K) was 0.00179, the solubility (mole fraction) (in benzene, 313.15 K) was 0.00214 and the solubility (mole fraction) (in benzene, 318.15 K) was 0.00254. For the same compound, the solubility (mole fraction) (in benzene, 323.15 K) was 0.003, the solubility (mole fraction) (in benzene, 328.15 K) was 0.00353 and the solubility (mole fraction) (in ethanol, 293.15 K) was 0.00366. It also gave a solubility (mole fraction) (in ethanol, 298.15 K) of 0.00436, a solubility (mole fraction) (in ethanol, 303.15 K) of 0.00512 and a solubility (mole fraction) (in ethanol, 308.15 K) of 0.00606. For the same compound, the solubility (mole fraction) (in ethanol, 313.15 K) was 0.0072, the solubility (mole fraction) (in ethanol, 318.15 K) was 0.00831 and the solubility (mole fraction) (in ethanol, 323.15 K) was 0.00962. For the same compound, the solubility (mole fraction) (in ethanol, 328.15 K) was 0.0109, the solubility (mole fraction) (in ethyl acetate, 293.15 K) was 0.00654 and the solubility (mole fraction) (in ethyl acetate, 298.15 K) was 0.00802. The solubility (mole fraction) (in ethyl acetate, 303.15 K) was 0.00923, the solubility (mole fraction) (in ethyl acetate, 308.15 K) was 0.0108 and the solubility (mole fraction) (in ethyl acetate, 313.15 K) was 0.0124. It also gave a solubility (mole fraction) (in ethyl acetate, 318.15 K) of 0.0143, a solubility (mole fraction) (in ethyl acetate, 323.15 K) of 0.0165 and a solubility (mole fraction) (in ethyl acetate, 328.15 K) of 0.019. The solubility (mole fraction) (in isobutanol, 293.15 K) was 0.00276, the solubility (mole fraction) (in isobutanol, 298.15 K) was 0.00349 and the solubility (mole fraction) (in isobutanol, 303.15 K) was 0.00418. The solubility (mole fraction) (in isobutanol, 308.15 K) was 0.0051, the solubility (mole fraction) (in isobutanol, 313.15 K) was 0.0063 and the solubility (mole fraction) (in isobutanol, 318.15 K) was 0.00781. For the same compound, the solubility (mole fraction) (in isobutanol, 323.15 K) was 0.0093, the solubility (mole fraction) (in isobutanol, 328.15 K) was 0.0111 and the solubility (mole fraction) (in isopropanol, 293.15 K) was 0.0039. The solubility (mole fraction) (in isopropanol, 298.15 K) was 0.00464, the solubility (mole fraction) (in isopropanol, 303.15 K) was 0.00563 and the solubility (mole fraction) (in isopropanol, 308.15 K) was 0.00653. For the same compound, the solubility (mole fraction) (in isopropanol, 313.15 K) was 0.00779, the solubility (mole fraction) (in isopropanol, 318.15 K) was 0.00952 and the solubility (mole fraction) (in isopropanol, 323.15 K) was 0.0115. The solubility (mole fraction) (in isopropanol, 328.15 K) was 0.0134, the solubility (mole fraction) (in methanol, 293.15 K) was 0.00255 and the solubility (mole fraction) (in methanol, 298.15 K) was 0.00304. For the same compound, the solubility (mole fraction) (in methanol, 303.15 K) was 0.0036, the solubility (mole fraction) (in methanol, 308.15 K) was 0.00424 and the solubility (mole fraction) (in methanol, 313.15 K) was 0.00484. The solubility (mole fraction) (in methanol, 318.15 K) was 0.00584, the solubility (mole fraction) (in methanol, 323.15 K) was 0.0066 and the solubility (mole fraction) (in methanol, 328.15 K) was 0.0076. It also gave a solubility (mole fraction) (in methyl acetate, 293.15 K) of 0.0051, a solubility (mole fraction) (in methyl acetate, 298.15 K) of 0.00593 and a solubility (mole fraction) (in methyl acetate, 303.15 K) of 0.00704. For the same compound, the solubility (mole fraction) (in methyl acetate, 308.15 K) was 0.00815, the solubility (mole fraction) (in methyl acetate, 313.15 K) was 0.00942 and the solubility (mole fraction) (in methyl acetate, 318.15 K) was 0.0108. For the same compound, the solubility (mole fraction) (in methyl acetate, 323.15 K) was 0.0126, the solubility (mole fraction) (in methyl acetate, 328.15 K) was 0.0145 and the solubility (mole fraction) (in n-butanol, 293.15 K) was 0.00471. The solubility (mole fraction) (in n-butanol, 298.15 K) was 0.00559, the solubility (mole fraction) (in n-butanol, 303.15 K) was 0.00658 and the solubility (mole fraction) (in n-butanol, 308.15 K) was 0.00775. The solubility (mole fraction) (in n-butanol, 313.15 K) was 0.00897, the solubility (mole fraction) (in n-butanol, 318.15 K) was 0.0105 and the solubility (mole fraction) (in n-butanol, 323.15 K) was 0.012. It also gave a solubility (mole fraction) (in n-butanol, 328.15 K) of 0.0138, a solubility (mole fraction) (in n-propanol, 293.15 K) of 0.00426 and a solubility (mole fraction) (in n-propanol, 298.15 K) of 0.00509. The solubility (mole fraction) (in n-propanol, 303.15 K) was 0.00598, the solubility (mole fraction) (in n-propanol, 308.15 K) was 0.00685 and the solubility (mole fraction) (in n-propanol, 313.15 K) was 0.00817. It also gave a solubility (mole fraction) (in n-propanol, 318.15 K) of 0.00954, a solubility (mole fraction) (in n-propanol, 323.15 K) of 0.0112 and a solubility (mole fraction) (in n-propanol, 328.15 K) of 0.0132.
